Source: article PMC11599207, “Identification of IspD as a novel target for tuberculosis treatment using compound M6” (Frontiers in Microbiology, 2024)

Biological target: T1, IspD (2-C-methyl-D-erythritol 4-phosphate cytidylyltransferase) (Mycolicibacterium smegmatis, UniProt A0R560)
T1 construct: recombinant IspD from pET28a-ispD, His trap purified, approximately 26 kDa
T1 sequence (A0R560 1-222): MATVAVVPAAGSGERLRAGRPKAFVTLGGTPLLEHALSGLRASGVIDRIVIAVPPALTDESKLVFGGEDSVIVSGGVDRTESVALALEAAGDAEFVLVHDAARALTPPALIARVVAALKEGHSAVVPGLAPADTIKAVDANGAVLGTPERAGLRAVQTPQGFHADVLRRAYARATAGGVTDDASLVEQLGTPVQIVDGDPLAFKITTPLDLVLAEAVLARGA
Test: ammonium molybdate pyrophosphate absorbance assay; double-reciprocal kinetics
Type: biochemical

| SMILES | ammonium molybdate pyrophosphate absorbance assay; double-reciprocal kinetics |
| --- | --- |
| Nc1ccn([C@@H]2O[C@H](COP(=O)(O)OP(=O)(O)OP(=O)(O)O)[C@@H](O)[C@H]2O)c(=O)n1 [CTP] | M6 acts as a non-competitive inhibitor of the substrate CTP (Figure 3D) |
| C[C@](O)(CO)[C@H](O)COP(=O)(O)O [MEP, 2-C-methyl-D-erythritol 4-phosphate] | indicating that M6 acts as a non-competitive inhibitor of the substrate MEP |
